Laboratory results as given in ChEMBL document CHEMBL3400005, “Thermodynamic equilibrium solubility measurements in simulated fluids by 96-well plate method in early drug discovery” (Bioorg Med Chem Lett, 2015).
Values after ≈ are worked out from the molar mass of the structure shown.

Legend:
[1] = physchem; conditions: pH 1.2
[2] = physchem; conditions: PBS, pH 7.4
[3] = physchem; conditions: pH 6.8
[4] = physchem; conditions: pH 6.8; remark: listed apart in the source
[5] = physchem; conditions: water
[6] = physchem; conditions: pH 1.2; remark: listed apart in the source
[7] = physchem; conditions: pH 7.4
[8] = physchem; conditions: water; remark: listed apart in the source
[9] = physchem

SMILES | solubility thermodynamic at 4 h ([1]; simulated gastric fluid) | solubility thermodynamic at 24 h [2] | solubility thermodynamic at 4 h ([3]; simulated intestinal fluid) | solubility thermodynamic at 24 h ([4]; simulated intestinal fluid) | solubility thermodynamic at 24 h [5] | solubility thermodynamic at 24 h ([6]; simulated gastric fluid) | solubility thermodynamic at 4 h ([7]; PBS) | solubility thermodynamic at 4 h [8] | solubility thermodynamic [9] | solubility thermodynamic at 4 h ([1]; simulated gi fluid) | solubility thermodynamic at 4 h ([3]; simulated gi fluid) | solubility thermodynamic at 24 h ([4]; simulated gi fluid) | solubility thermodynamic at 24 h ([6]; simulated gi fluid) | solubility thermodynamic at 4 h ([7]; buffer)
CCCc1nc2c(C)cc(-c3nc4ccccc4n3C)cc2n1Cc1ccc(-c2ccccc2C(=O)O)cc1 | 38.9 µM (≈ 20 µg/mL) | 6.46 µM (≈ 3.32 µg/mL) | 1.95 µM (≈ 1 µg/mL) | 2.29 µM (≈ 1.18 µg/mL) | 29.5 µM (≈ 15.2 µg/mL) | 40.7 µM (≈ 21 µg/mL) | 7.76 µM (≈ 3.99 µg/mL) | 3.89 µM (≈ 2 µg/mL) |  |  |  |  |  | 
CC(C(=O)[O-])c1ccc(-c2ccccc2)c(F)c1.[Na+] (centres undefined) | 33.1 µM |  | 4.07 µM |  |  |  | 162 µM | 331 µM |  |  |  |  |  | 
CC(=O)N[C@@H](CS)C(=O)O [ACETYLCYSTEINE] | 6.17 µM (≈ 1.01 µg/mL) |  | 6.17 µM (≈ 1.01 µg/mL) |  |  |  | 12.3 µM (≈ 2.01 µg/mL) | 24.5 µM (≈ 4.01 µg/mL) |  |  |  |  |  | 
CCCSc1ccc2nc(NC(=O)OC)[nH]c2c1 [ALBENDAZOLE] | 151 µM (≈ 40.2 µg/mL) | 12.9 µM (≈ 3.42 µg/mL) | 1.91 µM (≈ 0.506 µg/mL) | 0.759 µM (≈ 0.201 µg/mL) | 0.049 µM (≈ 0.013 µg/mL) | 204 µM (≈ 54.2 µg/mL) | 1.91 µM (≈ 0.506 µg/mL) | 0.38 µM (≈ 0.101 µg/mL) | 0.49 µM (≈ 0.13 µg/mL) |  |  |  |  | 
C[C@@H]1[C@H](O)[C@@H](C)/C=C/C=C/C=C/C=C/C=C/C=C/C=C/[C@H](O[C@@H]2O[C@H](C)[C@@H](O)[C@H](N)[C@@H]2O)C[C@@H]2O[C@](O)(C[C@@H](O)C[C@@H](O)[C@H](O)CC[C@@H](O)C[C@@H](O)CC(=O)O[C@H]1C)C[C@H](O)[C@H]2C(=O)O [AMPHOTERICIN B] | 13.5 µM (≈ 12.5 µg/mL) | 26.3 µM (≈ 24.3 µg/mL) | 4.37 µM (≈ 4.03 µg/mL) | 3.8 µM (≈ 3.51 µg/mL) | 22.9 µM (≈ 21.2 µg/mL) | 11.2 µM (≈ 10.4 µg/mL) | 21.9 µM (≈ 20.2 µg/mL) | 21.9 µM (≈ 20.2 µg/mL) | 81.3 µM (≈ 75.1 µg/mL) |  |  |  |  | 
CC(C)(C#N)c1cc(Cn2cncn2)cc(C(C)(C)C#N)c1 [ANASTROZOLE] | 1.7 µM (≈ 0.498 µg/mL) | 0.105 µM (≈ 0.0307 µg/mL) | 1.7 µM (≈ 0.498 µg/mL) | 0.692 µM (≈ 0.203 µg/mL) | 0.148 µM (≈ 0.0434 µg/mL) | 0.178 µM (≈ 0.0522 µg/mL) | 0.339 µM (≈ 0.0994 µg/mL) | 0.339 µM (≈ 0.0994 µg/mL) |  |  |  |  |  | 
CN1C(=N)N(C)/C(=C/c2c[nH]c3ccccc23)C1=O [APLYSINOPSIN] | 79.4 µM (≈ 20.2 µg/mL) |  | 0.389 µM (≈ 0.0989 µg/mL) |  |  |  | 56.2 µM (≈ 14.3 µg/mL) | 31.6 µM (≈ 8.04 µg/mL) |  |  |  |  |  | 
CC(=O)Oc1ccccc1C(=O)O [ASPIRIN] |  |  |  |  |  |  |  |  |  | 3310 µM (≈ 597 µg/mL) | 2.75 µM (≈ 0.496 µg/mL) | 3.72 µM (≈ 0.669 µg/mL) | 1450 µM (≈ 260 µg/mL) | 5010 µM (≈ 903 µg/mL)
COc1ccc2cc3[n+](cc2c1OC)CCc1cc2c(cc1-3)OCO2.[Cl-] [BERBERINE CHLORIDE] | 33.9 µM |  | 398 µM |  |  |  | 21.4 µM | 214 µM | 537 µM |  |  |  |  | 
CC(C)=CC[C@H]1C[C@@]23C[C@@H](CC=C(C)C)C(C)(C)[C@@](CC=C(C)C)(C(=O)C(C(=O)c4ccc(O)c(O)c4)=C2OC1(C)C)C3=O [CAMBOGIN] | 0.851 µM (≈ 0.513 µg/mL) |  | 0.851 µM (≈ 0.513 µg/mL) |  |  |  | 0.851 µM (≈ 0.513 µg/mL) | 0.851 µM (≈ 0.513 µg/mL) |  |  |  |  |  | 
CC[C@H]1OC(=O)[C@H](C)[C@@H](O[C@H]2C[C@@](C)(OC)[C@@H](O)[C@H](C)O2)[C@H](C)[C@@H](O[C@@H]2O[C@H](C)C[C@H](N(C)C)[C@H]2O)[C@](C)(OC)C[C@@H](C)C(=O)[C@H](C)[C@@H](O)[C@]1(C)O [CLARITHROMYCIN] | 0.676 µM (≈ 0.506 µg/mL) |  | 1.35 µM (≈ 1.01 µg/mL) |  |  |  | 0.676 µM (≈ 0.506 µg/mL) | 0.676 µM (≈ 0.506 µg/mL) | 0.0447 µM (≈ 0.0334 µg/mL) |  |  |  |  | 
Clc1ccccc1C(c1ccccc1)(c1ccccc1)n1ccnc1 [CLOTRIMAZOLE] | 5.75 µM (≈ 1.98 µg/mL) |  | 0.288 µM (≈ 0.0995 µg/mL) |  |  |  | 11.5 µM (≈ 3.96 µg/mL) | 10 µM (≈ 3.45 µg/mL) |  |  |  |  |  | 
CC(/C=C/C=C(\C)C(=O)O[C@@H]1O[C@H](CO[C@@H]2O[C@H](CO)[C@@H](O)[C@H](O)[C@H]2O)[C@@H](O)[C@H](O)[C@H]1O)=C\C=C\C=C(C)\C=C\C=C(/C)C(=O)O[C@@H]1O[C@H](CO[C@@H]2O[C@H](CO)[C@@H](O)[C@H](O)[C@H]2O)[C@@H](O)[C@H](O)[C@H]1O [CROCIN] | 155 µM (≈ 151 µg/mL) |  | 155 µM (≈ 151 µg/mL) |  |  |  | 155 µM (≈ 151 µg/mL) | 155 µM (≈ 151 µg/mL) |  |  |  |  |  | 
CC(=O)O[C@@]12CO[C@@H]1C[C@H](O)[C@@]1(C)C(=O)[C@H](O)C3=C(C)[C@@H](OC(=O)[C@H](O)[C@@H](NC(=O)OC(C)(C)C)c4ccccc4)C[C@@](O)([C@@H](OC(=O)c4ccccc4)[C@H]21)C3(C)C.O.O.O [DOCETAXEL] | 0.617 µM |  | 1.23 µM |  |  |  | 2.45 µM | 5.37 µM | 0.871 µM |  |  |  |  | 
CCCCCCCCCCCC1=C(O)C(=O)C=C(O)C1=O [EMBELIN] | 1.7 µM (≈ 0.5 µg/mL) |  | 1.7 µM (≈ 0.5 µg/mL) |  |  |  | 1.7 µM (≈ 0.5 µg/mL) | 1.7 µM (≈ 0.5 µg/mL) | 1.02 µM (≈ 0.301 µg/mL) |  |  |  |  | 
C=C(C)[C@@H](CC=C(C)C)C[C@@]12C[C@@H](CC=C(C)C)C(C)(C)[C@@](CC=C(C)C)(C(=O)C(C(=O)c3ccc(O)c(O)c3)=C1O)C2=O [GARCINOL] | 0.832 µM (≈ 0.501 µg/mL) |  | 6.61 µM (≈ 3.98 µg/mL) |  |  |  | 1.66 µM (≈ 1 µg/mL) | 1.66 µM (≈ 1 µg/mL) |  |  |  |  |  | 
NNC(=O)c1ccncc1 [ISONIAZID] | 589 µM (≈ 80.8 µg/mL) |  | 288 µM (≈ 39.6 µg/mL) |  |  |  | 589 µM (≈ 80.8 µg/mL) | 589 µM (≈ 80.8 µg/mL) |  |  |  |  |  | 
O=c1c2cc(O)c(O)cc2oc2cc(O)c([C@@H]3O[C@H](CO)[C@@H](O)[C@H](O)[C@H]3O)c(O)c12 [MANGIFERIN] | 19.1 µM (≈ 8.05 µg/mL) |  | 19.1 µM (≈ 8.05 µg/mL) |  |  |  | 47.9 µM (≈ 20.2 µg/mL) | 47.9 µM (≈ 20.2 µg/mL) |  |  |  |  |  | 
COc1ccc2[nH]c([S+]([O-])Cc3ncc(C)c(OC)c3C)nc2c1 (centres undefined) [OMEPRAZOLE] | 437 µM (≈ 151 µg/mL) |  | 57.5 µM (≈ 19.9 µg/mL) |  |  |  | 229 µM (≈ 79.1 µg/mL) | 229 µM (≈ 79.1 µg/mL) | 145 µM (≈ 49.9 µg/mL) |  |  |  |  | 
O=C(/C=C/C=C/c1ccc2c(c1)OCO2)N1CCCCC1 [PIPERINE] | 43.7 µM (≈ 12.5 µg/mL) |  | 70.8 µM (≈ 20.2 µg/mL) |  |  |  | 28.2 µM (≈ 8.04 µg/mL) | 70.8 µM (≈ 20.2 µg/mL) | 14.1 µM (≈ 4.03 µg/mL) |  |  |  |  | 
NC(=O)c1cnccn1 [PYRAZINAMIDE] | 5620 µM (≈ 692 µg/mL) |  | 7940 µM (≈ 978 µg/mL) |  |  |  | 5370 µM (≈ 661 µg/mL) | 5750 µM (≈ 708 µg/mL) |  |  |  |  |  | 
CC[C@H]1OC(=O)[C@H](C)[C@@H](O[C@H]2C[C@@](C)(OC)[C@@H](O)[C@H](C)O2)[C@H](C)[C@@H](O[C@@H]2O[C@H](C)C[C@H](N(C)C)[C@H]2O)[C@](C)(O)C[C@@H](C)/C(=N\OCOCCOC)[C@H](C)[C@@H](O)[C@]1(C)O [ROXITHROMYCIN] | 0.603 µM (≈ 0.504 µg/mL) |  | 0.603 µM (≈ 0.504 µg/mL) |  |  |  | 1.2 µM (≈ 1.01 µg/mL) | 0.603 µM (≈ 0.504 µg/mL) |  |  |  |  |  | 
[H]/N=C(/N)N[C@H]1[C@H](O)[C@@H](O)[C@H](O[C@@H]2O[C@@H](C)[C@](O)(C=O)[C@H]2O[C@@H]2O[C@@H](CO)[C@H](O)[C@@H](O)[C@@H]2NC)[C@@H](N/C(N)=N\[H])[C@@H]1O [STREPTOMYCIN] | 0.851 µM (≈ 0.495 µg/mL) |  | 0.851 µM (≈ 0.495 µg/mL) |  |  |  | 0.851 µM (≈ 0.495 µg/mL) | 0.851 µM (≈ 0.495 µg/mL) |  |  |  |  |  | 
CN(C/C=C/C#CC(C)(C)C)Cc1cccc2ccccc12.Cl [TERBINAFINE HYDROCHLORIDE] | 245 µM | 0.676 µM | 1.51 µM | 0.617 µM | 229 µM | 155 µM | 0.302 µM | 245 µM |  |  |  |  |  | 
CCS(=O)(=O)CCn1c([N+](=O)[O-])cnc1C [TINIDAZOLE] | 162 µM (≈ 40.1 µg/mL) |  | 324 µM (≈ 80 µg/mL) |  |  |  | 603 µM (≈ 149 µg/mL) | 324 µM (≈ 80 µg/mL) |  |  |  |  |  | 
